Consider three compounds from patent US20120244208A1, “COSMETIC SKIN CARE METHODS AND COMPOSITIONS” (priority 2009, published 2012).

The test system of data set [1] is Normal human dermal fibroblasts (NHDFs) seeded on collagen type 1 gels. The data set is described as follows: Fibroblast-seeded collagen gel contraction. Type of data set: cell-based. The note with it: for % of original size (mean): 0.1 mg/ml lactoferrin, 0.1 mg/ml ICI 118 551, 1.0 mg/ml Isoproterenol, 3.5×10^4 cells per well. Here is the method:
Normal human dermal fibroblasts (NHDFs) were obtained by tissue donation following circumcision following patient informed consent. The tissue was rinsed in Phosphate Buffered Saline (PBS) and Pen/Strep and Amphotericin B (Pen/strep) at 10 ug/ml. The tissue was then minced to 1 mm2 sections and suspended in Trypsin-EDTA 1:250 at room temperature (RT) for 1 hr. The tissue was then washed twice by centrifugation at 2500 g for 3min in serum supplemented DMEM/F12. A single cell suspension was created using mechanical disaggregation. The cells were counted using a haemocytometer and cultured at 1×10^6 cells per T75 tissue culture flask in DMEM/F12 containing 10% Fetal Bovine Serum (FBS) and 10 ug/ml Pen/strep. Incubators were kept at 37° C. and 5% CO2. Medium was changed every 3-4 days and cells were used from the 4th passage in vitro.
Collagen gels were formed. A solution of collagen, consisting of 2 mg/ml type 1 bovine collagen from bovine Achilles tendon in 0.5M acetic acid, was made. This made up 80% of the gel. Another 10% was made up of 10×PBS and the remaining volume was made up of FBS. The pH of the entire solution was adjusted to 7.4 using NaOH. 400 μl of the solution was placed into each well of a 24 well plate. The gels were set at 37° C. for 1 hr. After ensuring that the gels were set properly, they were detached from the sides of the wells and exposed to 1 ml fully supplemented DMEM/F12 overnight to acclimatize. The complete gels were seeded with 3.5×10^4 cells per well and the test compounds were added at this point. The test compound were added as follows: 0.1 mg/ml lactoferrin, 0.1 mg/ml ICI 118 551, 1.0 mg/ml Isoproterenol. A cell only and no cell control were also incuded.
Photographs were taken from the same distance at 0, 3, 6, 12 and 24 hrs of exposure using a Canon Powershot A640 10MP camera. The photos were transferred to CorelDRAW X3 and the inside diameter of the well as well as the outer edge of the gel were measured using the circle tool. […] These two diameters were then converted to a percentage of the well diameter by the formula geloutside/wellinside×100=gelrelative. This value was then worked out the same way for each gel at every time period. The time period Ohrs taken to be 100% of gel size and each time period after that was compared to it as a relative percentage. The standard deviation was calculated based on the original relative percentage to the well.

For data set [2] the test system is unchanged. The data set is described as follows: Fibroblast-seeded collagen gel contraction. Type of data set: cell-based.
A further data set has as its system NHDFs. The data set is described as follows: Viability monitored visually for 6 days. Type of data set: cell-based, human. Here is the method: Cytotoxicity was measured using the MTT assay on NHDFs. Human dermal cells were used as it approximates the intended use. No cytotoxicity was found. […] All other cells maintained their viability over the six day period.

For a further data set, the system named is fibroblasts. Conditions: concentration of 1 microM; cited from earlier work.
Setting [3] is: 0 hrs (taken to be 100% of gel size).

With `Cc1ccc(OCC(O)C(C)NC(C)C)c2c1CCC2` (racemic) [ICI 118 551, erythro-dl-1-(7-methylindan-4-yloxy)-3-isopropylaminobutan-2-ol], the “% of original size (mean)” value in data set [1] (setting [3]) was determined as 100%; in data set [1] (3 hrs) it was 66.04%; in data set [1] (6 hrs), 53.8%; in data set [1] (12 hrs) it was 51.33%; in data set [1] (24 hrs), 51.86%. For the same compound, in data set [1] (over 24 hrs), the “rate of gel contraction compared with Lactoferrin and cells only controls” value is recorded as “contract the gels at a higher rate”. The “ideal concentration for gel contraction” value in data set [2] (dose response 0.01 mg/ml to 0.2 mg/ml, gel containing 3.5×10^4 cells) is 0.1 mg/mL. Further, the “activity at lower concentrations (gel contraction)” value in data set [2] (dose response from 0.01 mg/ml, concentrations lower than 0.1 mg/ml) is “not be significantly active”. Also, the “effect of higher concentrations on rate of contraction” value in data set [2] (dose response up to 0.2 mg/ml, concentrations higher than 0.1 mg/ml) is reported as “did not seem to increase the rate of contraction significantly”. Further, in data set [2] (monitored for a further 3 days), the “return of gels to original dimensions” value is listed as “did not return to their original dimensions”.

In the case of `CC(C)NCC(O)c1ccc(O)c(O)c1` (centres unmarked) [Isoproterenol], the “% of original size (mean)” value in data set [1] (setting [3]) worked out at 100%; in data set [1] (3 hrs), 100.8622%; in data set [1] (6 hrs) it was 79.6766%; in data set [1] (12 hrs), 82.7588%; in data set [1] (24 hrs), 83.79%. The viability monitored visually entry in the data set with NHDFs is on record as “started to lose viability”.

With “YTRVVWXA: peptide with the amino acid sequence YTRVVWXA (a fragment from Lactoferrin)”, the “collagen gel contraction by fibroblasts relative to control” value in the data set on fibroblasts is on record as “about three times control”.
